Data set [1] in a line: Cytotoxicity assay. It is filed as cell-based. The following applies: mouse, Balb/C 3T3 mouse fibroblasts (clone A31).
Data set [2] relates to T. cruzi epimastigotes (Tulahuen CL98 strain). The data set is described as follows: Antitrypanosomal activity assay. The following applies: for Selectivity index (Cytotoxicity/ Activity): ratio of IC50 for fibroblast cells/ IC50 for parasites; for IC50: Trypanosoma cruzi, TULAHUEN, 48 h, read-out: Antitrypanocidal activity IC50. It is filed as cell-based, Trypanosoma cruzi.

Data set [3] can be described thus: Antitrypanosomal activity assay. It is filed as cell-based, Trypanosoma cruzi. The following applies: mouse (fibroblasts) / Trypanosoma cruzi (parasites).
Data set [4] relates to T. cruzi epimastigotes. The following applies: ref Ramos et al., 2009; cited from earlier work.

For `O=C1C(Br)=C(N(C(=O)c2ccccc2Cl)C(=O)c2ccccc2Cl)C(=O)c2ccccc21` [IMDNQ6, N-(3-Bromo-1,4-dioxo-1,4-dihydronaphthalen-2-yl)-2-chloro-N-(2-chlorobenzoyl)-benzamide], the IC50 at 48 h in data set [1] came to 14.2 ± 1.42 µM.

`O=C1C(Cl)=C(N2C(=O)COCC2=O)C(=O)c2ccccc21` [IMDNQ4]: the “Selectivity index (Cytotoxicity/ Activity)” value (“Selectivity index” below) in data set [2] amounted to 7.43 ± 0.97.

Turning to `O=C1C(Cl)=C(N(C(=O)c2cccc(Cl)c2)C(=O)c2cccc(Cl)c2)C(=O)c2ccccc21` [IMDNQ10, 3-Chloro-N-(3-chlorobenzoyl)-N-(3-chloro-1,4-dioxo-1,4-dihydronaphthalen-2-yl)-benzamide], the selectivity ratio at 48 h in data set [3] was determined as 275 ± 13.7. The IC50 in data set [2] was found to be 2.23 ± 0.15 µM.

`O=C1C(Cl)=C(N(C(=O)c2ccccc2Cl)C(=O)c2ccccc2Cl)C(=O)c2ccccc21` [IMDNQ8, 2-Chloro-N-(2-chlorobenzoyl)-N-(3-chloro-1,4-dioxo-1,4-dihydronaphthalen-2-yl)-benzamide]: in data set [2], the IC50 came to 2.67 ± 0.33 µM. In addition, the IC50 at 48 h in data set [1] came out at 26.5 ± 1.61 µM.

As to `O=C1C(Br)=C(N(C(=O)c2ccc(F)cc2)C(=O)c2ccc(F)cc2)C(=O)c2ccccc21` [IMDNQ5, N-(3-Bromo-1,4-dioxo-1,4-dihydronaphthalen-2-yl)-4-fluoro-N-(4-fluorobenzoyl)-benzamide], the IC50 in data set [2] worked out at 2.27 ± 0.15 µM. In data set [1], this compound gave an IC50 at 48 h of 12.8 ± 0.73 µM.

`O=C1C(Cl)=C(N(C(=O)c2ccc(F)cc2)C(=O)c2ccc(F)cc2)C(=O)c2ccccc21` [IMDNQ9, N-(3-Chloro-1,4-dioxo-1,4-dihydronaphthalen-2-yl)-4-fluoro-N-(4-fluorobenzoyl)-benzamide]: the IC50 in data set [2] amounted to 4.07 ± 0.23 µM. This compound showed an IC50 at 48 h in data set [1] of 21.8 ± 1.88 µM.

Regarding `CCCC(=O)N(C(=O)CCC)C1=C(Cl)C(=O)c2ccccc2C1=O` [IMDNQ3], in data set [2], the “Selectivity index” value is 31.83 ± 3.17.

In the case of `O=C1C(c2ccccc2)=C(c2ccccc2)C(=O)c2ccccc21` [DPNQ, 2,3-diphenyl-1,4-naphthoquin-one], the LD50 in data set [4] is recorded as 2.5 µM.

Consider `O=C1C(Cl)=C(N2C(=O)c3ccccc3C2=O)C(=O)c2ccccc21` [IMDNQ2], for which the “Selectivity index” value in data set [2] is on record as 53.97 ± 5.95.

For the compound `CC1CS(=O)(=O)CCN1/N=C/c1ccc([N+](=O)[O-])o1` (stereo not shown) [Nifurtimox, reference compound], the IC50 in data set [2] was 10.7 ± 1.01 µM.

Regarding `O=C1C(Cl)=C(N2C(=O)CCC2=O)C(=O)c2ccccc21` [IMDNQ1], the “Selectivity index” value in data set [2] came out at 60.25 ± 2.79.

On to `O=C1C(Cl)=C(N(C(=O)CCl)C(=O)CCl)C(=O)c2ccccc21` [IMDNQ11], for which the “Selectivity index” value in data set [2] is listed as 3.20 ± 0.44.

Source of the values: article PMC3666932 (Archives of pharmacal research, 2012).
